Experimental data: ChEMBL document CHEMBL1201862, “PubChem BioAssay data set” (2004)
Counter-ions that a name gives are not always drawn.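 Where inhibition never reached the appropriate level, the endpoint shown equals the highest concentration tested. Otherwise, values were interpolated linearly from a five-concentration, 48-hour dose response in 96-well plates. At the GI50, growth is halved.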 The source made the active and inactive calls. No stated cut-off is given here; in the data, active = GI50 up to about 1.1 µM and inactive = higher.

What was measured:
Experiment in all cases: DTP human tumour cell line panel, 48 h
UACC-257 = tested on: UACC-257
MCF7 = tested on: MCF7
NCI/ADR-RES = tested on: NCI/ADR-RES
TK-10 = tested on: TK-10
EKVX = tested on: EKVX
COLO 205 = tested on: COLO 205
U-251 = tested on: U-251
LOX IMVI = tested on: LOX IMVI
M14 = tested on: M14
UO-31 = tested on: UO-31
SK-OV-3 = tested on: SK-OV-3
NCI-H226 = tested on: NCI-H226
Malme-3M = tested on: Malme-3M
Hs-578T = tested on: Hs-578T
CAKI-1 = tested on: CAKI-1
SNB-75 = tested on: SNB-75
T47D = tested on: T47D
HCT-15 = tested on: HCT-15
OVCAR-8 = tested on: OVCAR-8
SN12C = tested on: SN12C

Row | SMILES | GI50 (UACC-257) | GI50 (MCF7) | GI50 (NCI/ADR-RES) | GI50 (TK-10) | GI50 (EKVX) | GI50 (COLO 205) | GI50 (U-251) | GI50 (LOX IMVI) | GI50 (M14) | GI50 (UO-31) | GI50 (SK-OV-3) | GI50 (NCI-H226) | GI50 (Malme-3M) | GI50 (Hs-578T) | GI50 (CAKI-1) | GI50 (SNB-75) | GI50 (T47D) | GI50 (HCT-15) | GI50 (OVCAR-8) | GI50 (SN12C)
1 | COCO[C@@H]1C[C@H]2C(=O)Nc3ccccc3C(=O)N2C1 | > 100 µM (inactive) | 54.1 µM (inactive) | 79.1 µM (inactive) | 71.4 µM (inactive) | > 100 µM (inactive) | 29.3 µM (inactive) | 45.7 µM (inactive) | 29.2 µM (inactive) | > 100 µM (inactive) | 27 µM (inactive) | > 100 µM (inactive) | 3.91 µM (inactive) | 40.3 µM (inactive) | 58.6 µM (inactive) | 36 µM (inactive) | 45.3 µM (inactive) | 69.2 µM (inactive) | > 100 µM | > 100 µM (inactive) | 88.1 µM (inactive)
2 | CC(=O)N/N=C1\NC(=O)C[C@H]2[C@@H]3CC=C4C[C@@H](OC(C)=O)CC[C@]4(C)[C@H]3CC[C@]12C | 18.7 µM (inactive) | 46.9 µM (inactive) | 39.4 µM (inactive) | 17.1 µM (inactive) | 36.1 µM (inactive) | 45.3 µM (inactive) | 12.8 µM (inactive) | 35.4 µM (inactive) | 30.8 µM (inactive) | 40.6 µM (inactive) | 21.1 µM (inactive) | 23.8 µM (inactive) | 39.1 µM (inactive) | 17.8 µM (inactive) | > 100 µM (inactive) | 20.9 µM (inactive) | > 100 µM (inactive) | 38.2 µM | 25.1 µM (inactive) | 29.6 µM (inactive)
3 | O=C(O)C1C2CCC(C2)C1c1ccccc1 (stereo not given) | > 100 µM (inactive) | > 100 µM (inactive) | > 100 µM (inactive) | > 100 µM (inactive) | > 100 µM (inactive) | > 100 µM (inactive) | > 100 µM (inactive) | > 100 µM (inactive) | > 100 µM (inactive) | > 100 µM (inactive) | > 100 µM (inactive) | > 100 µM (inactive) | > 100 µM (inactive) | > 100 µM (inactive) | > 100 µM (inactive) | > 100 µM (inactive) | > 100 µM (inactive) | > 100 µM | > 100 µM (inactive) | > 100 µM (inactive)
4 | O=C(/C=C/c1cc(O)c(O)cc1O)OCCc1ccccc1 | 34.8 µM (inactive) | 15 µM (inactive) | 27.2 µM (inactive) | 6.11 µM (inactive) | 41.4 µM (inactive) | 11.2 µM (inactive) | 27.7 µM (inactive) | 12.9 µM (inactive) | 14.9 µM (inactive) | 10.3 µM (inactive) | 26.8 µM (inactive) | 35.6 µM (inactive) | 13.6 µM (inactive) | 39.5 µM (inactive) | 24.5 µM (inactive) | 56 µM (inactive) | 4.4 µM (inactive) | 22.2 µM | 9.57 µM (inactive) | 15.6 µM (inactive)
5 | C=C1CC(C)(COc2cc(=O)oc3ccccc23)OC1=O (stereo not given) | 1.87 µM (inactive) | 1.74 µM (inactive) | 3.35 µM (inactive) | 1.77 µM (inactive) | 12.3 µM (inactive) | 2.03 µM (inactive) | 14.3 µM (inactive) | 2.56 µM (inactive) | 1.42 µM (inactive) | 12.1 µM (inactive) | 10.6 µM (inactive) | 10.3 µM (inactive) | 2.04 µM (inactive) | 7.74 µM (inactive) | 2.22 µM (inactive) | 8.07 µM (inactive) | 2.48 µM (inactive) | 3.43 µM | 5.21 µM (inactive) | 8.3 µM (inactive)
6 | N#CC12C(=O)N3C(=NC(c4ccccc4)NC3c3ccccc3)C1(C#N)C(c1ccccc1)NC1=C2CCCC1 (stereo not given) | > 100 µM (inactive) | > 100 µM (inactive) | > 100 µM (inactive) | > 100 µM (inactive) | > 100 µM (inactive) | > 100 µM (inactive) | > 100 µM (inactive) | > 100 µM (inactive) | > 100 µM (inactive) | > 100 µM (inactive) | > 100 µM (inactive) | > 100 µM (inactive) | > 100 µM (inactive) | > 100 µM (inactive) | > 100 µM (inactive) | > 100 µM (inactive) | > 100 µM (inactive) | > 100 µM | > 100 µM (inactive) | > 100 µM (inactive)
7 | CC(=O)OCC1OC(OC(C)=O)C(Nc2ncc(-c3ccc(C)cc3)s2)C(OC(C)=O)C1OC(C)=O (stereo not given) | 20.1 µM (inactive) | 20.3 µM (inactive) | 30.6 µM (inactive) | 18.8 µM (inactive) | 14.3 µM (inactive) | 17.7 µM (inactive) | 17 µM (inactive) | 13.2 µM (inactive) | 18.1 µM (inactive) | 14.7 µM (inactive) | 44.1 µM (inactive) | 26.4 µM (inactive) | 21.2 µM (inactive) | 22.5 µM (inactive) | 16.9 µM (inactive) | 15.5 µM (inactive) | 15.2 µM (inactive) | 22.5 µM | 24 µM (inactive) | 18.2 µM (inactive)
8 | [O-]c1c2cc(-[n+]3c(-c4ccccc4)cc(-c4ccccc4)cc3-c3ccccc3)cc1CO[C@@H](c1ccccc1)[C@H](c1ccccc1)OCCOCCO[C@@H](c1ccccc1)[C@H](c1ccccc1)OC2 | 0.106 µM (active) | 0.0382 µM (active) | 1.14 µM (inactive) | 0.24 µM (active) | 0.109 µM (active) | 0.0195 µM (active) | 0.0297 µM (active) | 0.0577 µM (active) | 0.0687 µM (active) | 0.379 µM (active) | 0.0502 µM (active) | 0.0885 µM (active) | 0.0407 µM (active) | 0.0652 µM (active) | 0.335 µM (active) | 0.0486 µM (active) | 0.0344 µM (active) | 0.319 µM | 0.0351 µM (active) | 0.0398 µM (active)
9 | NC(CC(=O)Nc1cc(C(F)(F)F)ccc1Cl)=NO | > 100 µM (inactive) | > 100 µM (inactive) | > 100 µM (inactive) | > 100 µM (inactive) | > 100 µM (inactive) | > 100 µM (inactive) | > 100 µM (inactive) | > 100 µM (inactive) | > 100 µM (inactive) | > 100 µM (inactive) | > 100 µM (inactive) | > 100 µM (inactive) | > 100 µM (inactive) | > 100 µM (inactive) | > 100 µM (inactive) | > 100 µM (inactive) | > 100 µM (inactive) | > 100 µM | > 100 µM (inactive) | > 100 µM (inactive)
10 | CN(C)CCC=C1c2ccccc2C=Cc2ccccc21 [CYCLOBENZAPRINE HYDROCHLORIDE] | 14.8 µM (inactive) | 16.3 µM (inactive) | 16.3 µM (inactive) | 16.2 µM (inactive) | 10.9 µM (inactive) | 14.4 µM (inactive) | 16.3 µM (inactive) | 16.7 µM (inactive) | 15.8 µM (inactive) | 15.8 µM (inactive) | 16.1 µM (inactive) | 0.0374 µM (active) | 16.9 µM (inactive) | 18.8 µM (inactive) | 17 µM (inactive) | 14.7 µM (inactive) | 19.5 µM (inactive) | 17.7 µM | 16 µM (inactive) | 16.9 µM (inactive)
11 | CC(Oc1ccccc1Cl)C(=O)NN1C(=O)CC(=O)N(c2ccc(Cl)cc2)C1=S (stereo not given) | 45.1 µM (inactive) | 29.6 µM (inactive) | 36.1 µM (inactive) | 54.7 µM (inactive) | 45.4 µM (inactive) | 39.7 µM (inactive) | 39.4 µM (inactive) | 30.8 µM (inactive) | 47.5 µM (inactive) | 37.1 µM (inactive) | 59 µM (inactive) | 52.8 µM (inactive) | > 100 µM (inactive) | 49.8 µM (inactive) | 40.7 µM (inactive) | 47.5 µM (inactive) | 34.6 µM (inactive) | 36.6 µM | 38.8 µM (inactive) | 35.2 µM (inactive)
12 | O=C(/C=C/c1ccc(F)c(F)c1)OCCc1ccccc1 | > 100 µM (inactive) | 81.8 µM (inactive) | > 100 µM (inactive) | > 100 µM (inactive) | > 100 µM (inactive) | > 100 µM (inactive) | > 100 µM (inactive) | 89.9 µM (inactive) | > 100 µM (inactive) | 90.4 µM (inactive) | > 100 µM (inactive) | > 100 µM (inactive) | > 100 µM (inactive) | > 100 µM (inactive) | 67.1 µM (inactive) | 84.5 µM (inactive) | 72.4 µM (inactive) | 58.5 µM | > 100 µM (inactive) | > 100 µM (inactive)
13 | N#Cc1c(N2CCCC2)nsc1NCc1ccccc1 | > 100 µM (inactive) | > 100 µM (inactive) | > 100 µM (inactive) | > 100 µM (inactive) | > 100 µM (inactive) | > 100 µM (inactive) | > 100 µM (inactive) | > 100 µM (inactive) | > 100 µM (inactive) | 4.14 µM (inactive) | > 100 µM (inactive) | > 100 µM (inactive) | > 100 µM (inactive) | 60.4 µM (inactive) | > 100 µM (inactive) | > 100 µM (inactive) | 74.6 µM (inactive) | > 100 µM | > 100 µM (inactive) | > 100 µM (inactive)
14 | CN(C)NC1=NS(=O)(=O)c2cc3c(=O)n(C)[nH]c3cc2S1 | > 10 µM (inactive) | 5.05 µM (inactive) | > 10 µM (inactive) | > 10 µM (inactive) | > 10 µM (inactive) | > 10 µM (inactive) | > 10 µM (inactive) | > 10 µM (inactive) | > 10 µM (inactive) | > 10 µM (inactive) | > 10 µM (inactive) | > 10 µM (inactive) | > 10 µM (inactive) | > 10 µM (inactive) | > 10 µM (inactive) | > 10 µM (inactive) | > 10 µM (inactive) | > 10 µM | > 10 µM (inactive) | > 10 µM (inactive)
